Experimental data taken from patent US20070101461A1, “Method for Improving Phytoremediation Treatment of a Contaminated Medium” (priority 2001, published 2007).

Legend:
plant = settings: cited from earlier work
Lupinus luteus = assay: toxicity test: toluene on growth of Lupinus luteus; settings: hydroponic, 0-3000 mg per liter tested, all other exposed plants dead
yellow lupine = assay: plant growth with toluene during hydroponic cultivation; settings: non-inoculated plants
Iris pseudocarus = assay: survival of plants in the presence of 2,4-D; assay type: in vivo; settings: 5 mg/l 2,4-D
Pseudomonas sp. VM422 = assay: zinc resistance phenotype, MIC on Tris minimal medium; assay type: cell-based; settings: strain VM422

For `ClC(Cl)=C(Cl)Cl` [PER], the “Fate in plant (toxic, build up, or volatile)” value (plant) is given as “Volatile”.
For `ClC=C(Cl)Cl` [TCE, tri-chloro-ethylene], the “Fate in plant (toxic, build up, or volatile)” value (plant) is listed as “Volatile, Build-up”.
With `Cc1ccccc1` [toluene] the “toluene concentration at which the exposed plant was not dead at the end of the third week” value (Lupinus luteus) was 100 mg per liter and the “toluene dose at which non-inoculated controls showed growth reduction” value (yellow lupine) was 100 mg/L.
In the case of `O=C(O)COc1ccc(Cl)cc1Cl` [2,4-D, 2,4-dichlorophenoxyacetic acid], the “Dead plants, Non-inoculated plants + 2,4-D” value (Iris pseudocarus) is reported as 75% and the “Healthy plants, Non-inoculated plants + 2,4-D” value (Iris pseudocarus) is reported as 25%.
With `[Zn]` [zinc] the “MIC value for zinc” value (Pseudomonas sp. VM422) was 20 mM.
